Literature values in US7772273B2 (LifeCycle Pharma A/S, priority 2006, dated 2010).
Like-named read-outs stand apart in the source and are kept apart here.

Columns and labels:
[1] = at 25° C.
[2] = oral

| SMILES | Water solubility [1] | LDL-C reduction (LDL-C; given with or without food) | LDL-C reduction (LDL-C; regardless of the time of day of drug administration) | Systemic availability of HMG-CoA reductase inhibitory activity [2] |
| --- | --- | --- | --- | --- |
| NC(CO)(CO)CO [Trometamol, 2-amino-2-(hydroxymethyl)-1,3-propanediol] | about 550 mg/mL |  |  |  |
| CC(C)c1c(C(=O)Nc2ccccc2)c(-c2ccccc2)c(-c2ccc(F)cc2)n1CCC(O)CC(O)CC(=O)O (stereo not drawn) [atorvastatin, 2-(4-fluorophenyl)-β,δ-dihydroxy-5-(1-methylethyl)-3-phenyl-4-[(phenylamino)carbonyl]-1H-pyrrole-1-heptanoic acid] |  | similar | the same | approximately 30% |
